Measured values from patent publication US20240199542A1, “SUBSTITUTED PYRROLIDIN-2-ONES, SALTS THEREOF AND THEIR USE AS HERBICIDALLY ACTIVE SUBSTANCES” (Bayer Aktiengesellschaft, priority 2021, published 2024).

Experiments:
Format in all cases: in vivo
[1] = test system: Amaranthus retroflexus (AMARE); test: Herbicidal pre-emergence action; conditions: 1280 g/ha, graded after ca. 3 weeks
Outline: (§1)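 Percent herbicidal effect, from 0% (as untreated) to 100% (plants dead), was graded visually about 3 weeks after treatment under optimal greenhouse conditions. Compounds, as WP or EC with 0.5% additive in 600 l water/ha at up to 1280 g/ha, were applied to covering soil over freshly sown seeds in sandy loam.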

[2] = test system: Avena fatua (AVEFA); test: Herbicidal pre-emergence action; conditions: 1280 g/ha, graded after ca. 3 weeks
Outline: as §1

[3] = test system: Cyperus esculentus (CYPES); test: Herbicidal pre-emergence action; conditions: 1280 g/ha, graded after ca. 3 weeks
Outline: as §1

[4] = test system: Matricaria inodora (MATIN); test: Herbicidal pre-emergence action; conditions: 1280 g/ha, graded after ca. 3 weeks
Outline: as §1

[5] = test system: Amaranthus retroflexus (AMARE); test: Herbicidal post-emergence action; conditions: 1280 g/ha, assessed after ca. 3 weeks
Outline: (§2)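 Plants sprayed at single-leaf stage, 2–3 wk post-sowing; aq. suspension/emulsion of WP or EC, 0.5% additive, 600 l/ha; doses 1280 or 320 g/ha. Greenhouse ~3 wk, then visual % effect vs untreated (100% = dead).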

[6] = test system: Avena fatua (AVEFA); test: Herbicidal post-emergence action; conditions: 1280 g/ha, assessed after ca. 3 weeks
Outline: as §2

[7] = test system: Veronica persica (VERPE); test: Herbicidal post-emergence action; conditions: 1280 g/ha, assessed after ca. 3 weeks
Outline: as §2

[8] = test system: Stellaria media (STEME); test: Herbicidal post-emergence action; conditions: 1280 g/ha, assessed after ca. 3 weeks
Outline: as §2

[9] = test system: Lolium multiflorum (LOLMU); test: Herbicidal post-emergence action; conditions: 1280 g/ha, assessed after ca. 3 weeks
Outline: as §2

[10] = test system: Alopecurus myosuroides (ALOMY); test: Herbicidal post-emergence action; conditions: 1280 g/ha, assessed after ca. 3 weeks
Outline: as §2

[11] = test system: Pharbitis purpurea (PHBPU); test: Herbicidal post-emergence action; conditions: 1280 g/ha, assessed after ca. 3 weeks
Outline: as §2

[12] = test system: Matricaria inodora (MATIN); test: Herbicidal post-emergence action; conditions: 1280 g/ha, assessed after ca. 3 weeks
Outline: as §2

[13] = test system: Veronica persica (VERPE); test: Herbicidal pre-emergence action; conditions: 1280 g/ha, graded after ca. 3 weeks
Outline: as §1

[14] = test system: Echinochloa crus-galli (ECHCG); test: Herbicidal pre-emergence action; conditions: 1280 g/ha, graded after ca. 3 weeks
Outline: as §1

[15] = test system: Setaria viridis (SETVI); test: Herbicidal pre-emergence action; conditions: 1280 g/ha, graded after ca. 3 weeks
Outline: as §1

[16] = test system: Alopecurus myosuroides (ALOMY); test: Herbicidal pre-emergence action; conditions: 1280 g/ha, graded after ca. 3 weeks
Outline: as §1

[17] = test system: Pharbitis purpurea (PHBPU); test: Herbicidal pre-emergence action; conditions: 1280 g/ha, graded after ca. 3 weeks
Outline: as §1

[18] = test system: Echinochloa crus-galli (ECHCG); test: Herbicidal post-emergence action; conditions: 1280 g/ha, assessed after ca. 3 weeks
Outline: as §2

[19] = test system: Lolium multiflorum (LOLMU); test: Herbicidal pre-emergence action; conditions: 1280 g/ha, graded after ca. 3 weeks
Outline: as §1

[20] = test system: Polygonum convolvulus (POLCO); test: Herbicidal pre-emergence action; conditions: 1280 g/ha, graded after ca. 3 weeks
Outline: as §1

[21] = test system: Stellaria media (STEME); test: Herbicidal pre-emergence action; conditions: 1280 g/ha, graded after ca. 3 weeks
Outline: as §1

[22] = test system: Setaria viridis (SETVI); test: Herbicidal post-emergence action; conditions: 1280 g/ha, assessed after ca. 3 weeks
Outline: as §2

[23] = test system: Viola tricolor (VIOTR); test: Herbicidal post-emergence action; conditions: 1280 g/ha, assessed after ca. 3 weeks
Outline: as §2

[24] = test system: Polygonum convolvulus (POLCO); test: Herbicidal post-emergence action; conditions: 1280 g/ha, assessed after ca. 3 weeks
Outline: as §2

[25] = test system: Viola tricolor (VIOTR); test: Herbicidal pre-emergence action; conditions: graded after ca. 3 weeks
Outline: as §1

[26] = test system: Brassica napus (BRSNW); test: Post-emergence effects on crop plants; conditions: application rate 320 g/ha, crop plant Brassica napus (BRSNW)
Outline: (§3)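 Greenhouse-grown plants in sandy loam sprayed post-emergence at single-leaf stage (2–3 weeks after sowing) with WP or EC formulations plus 0.5% additive, 600 l water/ha, at rates of 320 g/ha or below. Visual damage scored ca. 3 weeks later versus untreated controls, 0% (as control) to 100% (dead).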

[27] = test system: Zea Mays (ZEAMX); test: Post-emergence effects on crop plants; conditions: 320 g/ha, crop plant
Outline: as §3

[28] = test system: Glycine max (GLXMA); test: Post-emergence effects on crop plants; conditions: 320 g/ha, crop plant
Outline: as §3

[29] = test system: Digitaria sanguinalis (DIGSA); test: Herbicidal pre-emergence action; conditions: 320 g/ha, graded after ca. 3 weeks
Outline: as §1

[30] = test system: Digitaria sanguinalis (DIGSA); test: Herbicidal post-emergence action; conditions: 320 g/ha, assessed after ca. 3 weeks
Outline: as §2

[31] = test system: Lolium rigidum (LOLRI); test: Herbicidal post-emergence action; conditions: 320 g/ha, assessed after ca. 3 weeks
Outline: as §2

[32] = test system: Brassica napus (BRSNW); test: Pre-emergence effects on crop plants; conditions: 320 g/ha, crop plant
Description: (§4) Seeds of mono- and dicotyledonous weed plants and crop plants were sown, in plastic or organic planting pots, in sandy loam and covered with soil. The compounds according to the invention, formulated in the form of wettable powders (WP) or as emulsifiable concentrates (EC), were applied to the surface of the covering soil as aqueous suspension or emulsion, with the addition of 0.5% of an additive, at an application rate of 600 1 of water/ha (converted).
(§5) Following treatment, the pots were placed in a greenhouse and kept under optimum growth conditions for the test plants. The visual grading of the damage to the test plants was carried out after ca. 3 weeks in comparison to untreated controls (herbicidal effect in percent (%): 100% effect=plants have died off, 0% effect=as control plants).
(§6) Tables C1 to C3 below show the effects of selected compounds of the general formula (I) according to table 1 on various crop plants and an application rate corresponding to 320 g/ha or below obtained by the experimental procedure mentioned above in biology section A.

[33] = test system: Zea Mays (ZEAMX); test: Pre-emergence effects on crop plants; conditions: 320 g/ha, crop plant
Description: as §4, §5, §6

[34] = test system: Glycine max (GLXMA); test: Pre-emergence effects on crop plants; conditions: 320 g/ha, crop plant
Description: as §4, §5, §6

| SMILES | Pre-emergence activity against AVEFA [2] [%] | Pre-emergence activity against CYPES [3] [%] | Post-emergence activity against AVEFA [6] [%] | Post-emergence activity against STEME [8] [%] | Post-emergence activity against ALOMY [10] [%] | Pre-emergence activity against ECHCG [14] [%] | Pre-emergence activity against SETVI [15] [%] | Pre-emergence activity against ALOMY [16] [%] | Post-emergence activity against ECHCG [18] [%] | Pre-emergence activity against POLCO [20] [%] | also measured |
| --- | --- | --- | --- | --- | --- | --- | --- | --- | --- | --- | --- |
| O=C(CC1CCC(=O)N1Cc1cccc(F)c1F)NCc1ccccc1 (racemic) [Example I-055] | 80 | 100 |  |  |  |  |  |  |  |  | Pre-emergence activity against AMARE [1]: 100% |
| CC1(C)C(=O)C(C(=O)CC2CCC(=O)N2Cc2cccc(F)c2F)C(=O)C(C)(C)C1=O (racemic) [Example I-184] |  |  | 80 | 80 | 80 |  |  |  |  |  | Pre-emergence activity against MATIN [4]: 80%; Post-emergence activity against AMARE [5]: 80%; Post-emergence activity against VERPE [7]: 80%; Post-emergence activity against LOLMU [9]: 80%; Post-emergence activity against PHBPU [11]: 90%; Post-emergence activity against MATIN [12]: 90% |
| O=C(CC1CCC(=O)N1Cc1cccc(F)c1F)OCCOc1ccc(Cl)cc1 (racemic) [Example I-033] | 100 | 80 |  |  | 80 | 80 | 80 | 90 | 80 |  | Pre-emergence activity against VERPE [13]: 90%; Pre-emergence activity against PHBPU [17]: 80%; Pre-emergence activity against MATIN [4]: 80% |
| Cn1nnnc1NC(=O)CC1CCC(=O)N1Cc1cccc(F)c1F (racemic) [Example I-004] | 100 | 100 | 100 | 80 | 90 | 80 | 80 | 90 | 100 | 80 | Pre-emergence activity against LOLMU [19]: 90%; Post-emergence activity against VERPE [7]: 80%; Post-emergence activity against LOLMU [9]: 90% |
| CC1(C)CC(=O)C(C(=O)CC2CCC(=O)N2Cc2cccc(F)c2F)C(=O)C1 (racemic) [Example I-179] | 90 |  | 90 | 80 |  |  |  |  | 90 |  | Pre-emergence activity against STEME [21]: 80%; Post-emergence activity against SETVI [22]: 80% |
| CC1CC(=O)C(C(=O)CC2CCC(=O)N2Cc2cccc(F)c2F)C(=O)C1 (racemic) [Example I-180] | 90 |  | 80 | 90 |  | 90 |  | 80 | 90 |  | Post-emergence activity against AMARE [5]: 90%; Post-emergence activity against VIOTR [23]: 80%; Post-emergence activity against POLCO [24]: 80% |
| O=C(O)CC1CCC(=O)N1Cc1cccc(F)c1F (single isomer, unassigned) [Example I-065] | 80 |  | 90 |  |  |  |  |  |  | 100 | Pre-emergence activity against VIOTR ([25]; 1280 g/ha): 100%; Post-emergence activity against PHBPU [11]: 80% |
| O=C(CC1CCC(=O)N1Cc1cccc(F)c1F)OCCOc1ccc(F)cc1 (racemic) [Example I-007] | 100 | 90 | 90 |  | 80 | 90 | 90 | 90 | 90 | 90 | post-emergence activity against BRSNW [26]: 0%; post-emergence activity against ZEAMX (crop damage) [27]: 0%; post-emergence activity against GLXMA (crop damage) [28]: 0%; Pre-emergence activity against VERPE [13]: 90%; Pre-emergence activity against DIGSA [29]: 90%; Pre-emergence activity against STEME [21]: 80%; Pre-emergence activity against VIOTR ([25]; 320 g/ha): 90%; Pre-emergence activity against LOLMU [19]: 90%; Pre-emergence activity against PHBPU [17]: 80%; Post-emergence activity against DIGSA [30]: 90%; Post-emergence activity against LOLRI [31]: 80%; pre-emergence activity against BRSNW (crop damage) [32]: 0%; pre-emergence activity against ZEAMX (crop damage) [33]: 0%; pre-emergence activity against GLXMA (crop damage) [34]: 0% |
